One sequence from article PMC7913925, “Design and Evaluation of a Polypeptide That Mimics the Integrin Binding Site for EDA Fibronectin to Block Profibrotic Cell Activity” (International Journal of Molecular Sciences, 2021) can be followed below.

Data set [1] has as its system human HFL1 lung fibroblast cells. The experiment in a line: Cytotoxicity/proliferation assay (CCK-8) HFL1. To be noted: TGF-β1 stimulated HFL1, over 72 h. Format: cell-based. The procedure:
HFL1 cells were cultured in Kaighn’s modified Ham’s F-12 (F-12K) medium (Sigma-Aldrich) containing NaHCO3 and HEPES buffered to pH 7. Cells were grown to confluence in T75 culture flasks in the presence of 10% fetal bovine serum (FBS; Gibco, Thermo Fisher Scientific, Waltham, MA, USA). HFL1 cells were subcultured using 0.05% trypsin at a ratio of 1:3. NIH/3T3 cells were cultured in Dulbecco’s Modified Eagle Medium (DMEM; HyClone, Thermo Fisher Scientific) containing 100 U/mL penicillin and 100 μg/mL streptomycin. Cells were grown to confluence in T75 culture flasks in the presence of 10% FBS. NIH/3T3 cells were subcultured using 0.05% trypsin/EDTA at a ratio of 1:3. All cells were maintained at 37 °C and 5% CO2, and growth medium was replenished every 3 days until experimentation. Cells were growth-arrested in serum-free medium for 48 h before experiments, and all experiments were performed under serum-free conditions using cells between passages 3 and 8.
Cells were seeded into 12-well culture plates at a density of 2.5 × 10^4 and when cultures reached 50% confluence, the culture medium was replaced with fresh serum-free F12K or serum-free DMEM/F12 for 48 h (growth arrest). […] Absorbance was measured at 450 nm wavelength using a Bio-Rad optical plate reader.

A further data set concerns osteopontin (OPN). Nature of the data set: Western blot total protein OPN. The data set is classed as cell-based. The settings on record: 48 h, TGF-β1+AF38Pep. For orientation: Immunoblotting shows a protein as a band on a membrane.
The subject of another data set is EDA-FN–ITGA4 interaction. Nature of the data set: Co-IP of EDA-FN with ITGA4. The data set is classed as cell-based. The settings on record: 48 h, Co-IP with anti-ITGA4. How it is done: (§1) Total protein was extracted from cells in RIPA lysis buffer containing 1% protease inhibitor cocktail, 1% phenylmethylsulfonyl fluoride, and 1% sodium orthovanadate (Santa Cruz Biotechnology, Santa Cruz, CA, USA). Protein was quantified by Micro BCA Protein Assay Kit (Thermo Fisher Scientific) before 7.5% SDS-PAGE and transfer to nitrocellulose. Membranes were blocked with 5% bovine serum albumin (BSA; Sigma-Aldrich)/0.5% Tween-20 (Sigma-Aldrich)/PBS for 1 h, RT, followed by incubation with primary antibodies diluted in 1% BSA/0.1% Tween-20/PBS, overnight at 4 °C. Primary antibodies were: anti-phosphoY204/Y187 ERK1/2 (1:1000); anti-ERK1/2 (1:1000); anti-phosphoY861 FAK (1:1000); anti-FAK (1:2000). Immunoblotting for anti-GAPDH (1:2500) was used as a protein loading control. Following wash steps, membranes were incubated in goat anti-rabbit IgG H&L secondary antibody (horseradish peroxidase, HRP conjugate, […]) (Abcam; 1:5000 dilution, 1% BSA/0.1% Tween-20/PBS). Detection was performed using Immobilon reagent (Merck Millipore, Burlington, MA, USA) and imaged using a Tanon 5500 Chemiluminescent Imaging System (Tanon, Shanghai, China).
A volume of 25 µg total protein from cell lysate in nondenaturing lysis buffer containing protease inhibitors was immunoprecipitated (IP) using anti-ITGA4 antibodies linked to protein A/G sepharose beads (Abcam). […]

Data set [2] relates to FAK in NIH/3T3 fibroblasts. The experiment in a line: Western blot FAK phosphorylation and total protein. The settings on record: TGF-β1 10 ng/mL, AF38Pep 10 µg/mL. Format: cell-based, mouse. How it is done:
as §1

The next data set deals with pro-MMP9. The experiment in a line: Gelatinase zymography pro-MMP9. The settings on record: 48 h, TGF-β1 10 ng/mL, AF38Pep 10 µg/mL, conditioned medium. Format: cell-based, mouse. How it is done: Conditioned media were collected from cells incubated with serum-free medium (SFM) alone, SFM containing 10 ng/mL TGF-β1, SFM containing 10 µg/mL AF38Pep, or SFM containing both 10 ng/mL TGF-β1 and 10 µg/mL AF38Pep. Conditioned medium was concentrated 10× by filtrating spin columns (Amicon Ultra-4 10 kDa MWCO, Merck Millipore) and protein was quantified by Micro BCA Protein Assay Kit (Thermo Fisher Scientific). A 1.5 mm thick 10% nonreducing acrylamide gel containing gelatin was prepared and 10 µg of sample in 5 × nonreducing buffer was loaded into the gel lanes. The gel was run at 100 V until the protein entered the stacking gel layer, then the voltage was increased to 150 V until the marker achieved resolved band separation. The gels were then washed twice for 30 min using wash buffer to remove SDS and renature the enzymes. Gels were further rinsed for 5–10 min in incubation buffer at 37 °C with agitation to activate the gelatinase reaction. Fresh incubation buffer was added, and the gels were incubated overnight at 37 °C. Gels were stained with staining solution containing Coomassie blue for between 30 min to 1 h, before rinsing with ddH2O and subsequent incubation with de-stain solution until bands could be observed. The gels were transferred to 2% acetic acid and rehydrated overnight for imaging by scanner.

The test system of data set [3] is NIH/3T3 fibroblasts, collagen gel contraction. Nature of the data set: Collagen gel contraction assay. Format: cell-based, mouse. To be noted: TGF-β1 10 ng/mL + AF38Pep 10 µg/mL vs TGF-β1 alone. How it is done: Approximately 2 × 10^4/mL NIH/3T3 fibroblasts were added to a solution containing 3 mg/mL rat tail collagen type I (BD Biosciences, San Diego, CA, USA), 260 mM NaHCO3, 200 mM HEPES and 50 mM NaOH. To each well of a 24-well cell culture plate, 500 µL of collagen-cell solution was added and allowed to polymerize at 37 °C for 1 h. The gels were carefully detached from the well walls before resuspension of gels in 1% FBS-DMEM and maintained at 37 °C, in a 5% CO2 atmosphere for 24 h. The DMEM medium was removed and replaced with serum-free DMEM medium with or without 10 ng/mL TGF-β1 and/or 10 µg/mL AF38Pep. Gels were photographed and measured at days 0, 1, 2, 4, and 6 after treatment. The average contraction values were obtained using ImageJ v1.37c (NIH, Bethesda, MD, USA) and are expressed as a percentage of contraction versus the initial gel diameter at 0 days.

Bridges are numbered along the chain shown (N, C = ends). Where no end group is shown, it is not given here.

Turning to “VMPYISTTPAKPCTSENCGNSWYGGFKSKNENKIYFIN (disulfide 13-18 (inferred)) [AF38Pep]”, the cytotoxicity/proliferation result in data set [1] was “not detrimental to cell numbers”. For the same sequence, in the data set on osteopontin (OPN), the OPN protein expression entry is listed as “significantly attenuated”. The “EDA-FN–ITGA4 interaction” value with EDA-FN–ITGA4 interaction is reported as “specifically inhibited EDA-FN–ITGA4 interactions”. For the same sequence, the FAK phosphorylation result in data set [2] (1 h) is on record as “significantly suppressed”; in data set [2] (12 h), “significantly less activation”. In addition, the “total FAK protein” value in data set [2] (12 h) is on record as “marginally reduced”. The pro-MMP9 gelatinase activity entry in the data set with pro-MMP9 was “suppressed activity levels”. The collagen gel contraction result in data set [3] (96 h) is listed as “significantly delayed collagen gel contraction”; in data set [3] (144 h), “maintained a significant difference in contraction”.
